Our source for the IC50 values is BindingDB's records for doi:10.7270/Q2HM5725 (Burnham Center For Chemical Genomics, 2012).

Some results are limits rather than exact numbers.

The target in the test is Neuropilin-1 (Homo sapiens, UniProt O14786).
Neuropilin-1, sequence (O14786 whole entry): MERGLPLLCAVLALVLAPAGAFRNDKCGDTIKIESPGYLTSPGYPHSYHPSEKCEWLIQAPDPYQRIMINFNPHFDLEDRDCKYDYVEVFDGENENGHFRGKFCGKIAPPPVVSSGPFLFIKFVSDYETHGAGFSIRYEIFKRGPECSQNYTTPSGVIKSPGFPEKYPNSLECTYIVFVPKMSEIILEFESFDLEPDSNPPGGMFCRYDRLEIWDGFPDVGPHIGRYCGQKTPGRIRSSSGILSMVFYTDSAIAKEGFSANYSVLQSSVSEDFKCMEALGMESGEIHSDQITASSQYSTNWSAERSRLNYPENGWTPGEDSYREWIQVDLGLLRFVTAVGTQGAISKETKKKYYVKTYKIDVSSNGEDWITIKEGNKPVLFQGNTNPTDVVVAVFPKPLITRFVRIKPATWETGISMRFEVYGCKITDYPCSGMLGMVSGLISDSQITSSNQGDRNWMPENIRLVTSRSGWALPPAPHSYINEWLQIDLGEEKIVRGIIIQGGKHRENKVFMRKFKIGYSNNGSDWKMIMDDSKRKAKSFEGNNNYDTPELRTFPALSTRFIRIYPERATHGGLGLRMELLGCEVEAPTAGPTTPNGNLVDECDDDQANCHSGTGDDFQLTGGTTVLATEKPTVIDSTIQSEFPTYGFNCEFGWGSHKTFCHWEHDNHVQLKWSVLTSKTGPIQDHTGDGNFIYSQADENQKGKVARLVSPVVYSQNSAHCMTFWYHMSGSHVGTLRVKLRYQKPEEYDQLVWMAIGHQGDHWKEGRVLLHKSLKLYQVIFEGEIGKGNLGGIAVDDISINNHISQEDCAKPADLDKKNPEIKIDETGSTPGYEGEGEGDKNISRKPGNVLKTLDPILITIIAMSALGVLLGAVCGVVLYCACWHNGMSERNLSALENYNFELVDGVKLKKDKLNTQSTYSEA
For orientation: IC50 means the concentration at which inhibition is half-maximal. A high value points to weaker potency in that assay. On to `CCC1=C(OC(=O)N(CC)CC)N2C(=O)O/C(=N\CC(=O)OC)[C@]2(C)[C@H]2C1=CC[C@H]1C(=O)N(CC)C(=O)[C@H]12` [SMR000440357], for which the IC50 was over 95 µM.

As for `Cc1ccc2c(c1)=C(c1ccncc1)NN=C(c1ccc(F)cc1)N=2` [MLS000692744], the IC50 is over 95 µM.

In turn, `COc1cccc(N2[C@@H](CC(C)=O)c3ccc(C=CC(C)=O)cc3S2(=O)=O)c1` [(E)-4-[(3S)-2-(3-methoxyphenyl)-1,1-bis(oxidanylidene)-3-(2-oxidanylidenepropyl)-3H-1,2-benzothiazol-6-yl]but-3-en-2-one] yielded an IC50 of over 95 µM.

For the compound `CCC1=C(OC(=O)N(CC)CC)N2C(=O)O/C(=N\CC(=O)OC)[C@]2(Cc2ccccc2)[C@H]2C1=CC[C@H]1C(=O)N(CC(=O)OC)C(=O)[C@H]12` [MLS000877797], the IC50 was over 95 µM.

In turn, `Cc1ccc(N=CC(S(=O)(=O)c2ccccc2)S(=O)(=O)c2ccccc2)cc1` registered an IC50 of over 95 µM.

In turn, `Cn1cccc1C1Nc2ccccc2N=C2CC(C)(C)CC(=O)C21` (configuration not stated) [MLS000533228] registered an IC50 of over 95 µM.

As for `O=C(Cc1ncnc2c1ncn2C1OC(CO)C(O)C1O)c1ccccc1` (configuration not stated), the IC50 was over 95 µM. The value for `CCOC(=O)C1=C(C)N=C2CCCC(=O)C2C1c1cn(Cc2ccc(Cl)cc2Cl)nc1-c1ccccc1` (configuration not stated) [4-[1-[(2,4-dichlorophenyl)methyl]-3-phenyl-4-pyrazolyl]-2-methyl-5-oxo-4,6,7,8-tetrahydro-1H-quinoline-3-carboxylic acid ethyl ester] was over 95 µM; that for `CCC1=C(OC(=O)N(CC)CC)N2C(=O)O/C(=N\CC3CC3)[C@]2(Cc2ccccc2)[C@H]2C1=CC[C@H]1C(=O)N(C)C(=O)[C@H]12` [SMR000440396] was over 95 µM; that for `C=CCN1C(=O)C2(c3ccccc3OC(=N)C2C(=O)OCC)c2c1c1ccccc1oc2=O` (configuration not stated) [2-amino-2',4'-dioxo-1'-prop-2-enyl-3-spiro[1-benzopyran-4,3'-[1]benzopyrano[4,3-b]pyrrole]carboxylic acid ethyl ester] was over 95 µM. The compound `Cc1ccc(CN=Nc2nc3ccccc3[nH]2)s1` [SMR000261490] showed an IC50 of over 95 µM.

The compound `COc1ccc(-n2c(O)cc(SCCc3nc4ccccc4[nH]3)c2O)cc1` [SMR000200354] had an IC50 of over 95 µM. `CCOc1ccc(-n2c(O)cc(N3CCN(c4ccc(Cl)cc4)CC3)c2O)cc1` [3-[4-(4-Chloro-phenyl)-piperazin-1-yl]-1-(4-ethoxy-phenyl)-pyrrolidine-2,5-dione] had an IC50 of over 95 µM.

Take `CC(C)C1=NC(=O)NC2CCCCC12` (configuration not stated) [SMR000060291]: the IC50 is over 95 µM. The value for `CCOC(=O)C1C(=O)C(=O)N(c2ccccc2)C1c1cccc([N+](=O)[O-])c1` (configuration not stated) [ethyl 2-(3-nitrophenyl)-4-oxidanyl-5-oxidanylidene-1-phenyl-2H-pyrrole-3-carboxylate] was over 95 µM; that for `Cc1cc2c(cc1C)NC(c1nc3ccccc3[nH]1)C1C(=O)CC(C)(C)CC1=N2` (configuration not stated) [SMR000120514] was over 95 µM.

With `CCC(NCCc1ccccc1)=C1C(=O)NC(=O)N(C2CCCCC2)C1=O` [MLS000557927], the IC50 was over 95 µM. `CC1(c2ccccc2)CC(C)(C)N2C(=O)/C(=C3/NC(=S)NC3=O)c3cccc1c32` (configuration not stated) [SMR000221518] came in with an IC50 of over 95 µM.

In turn, `C=CCOc1ccc(C2C(C(=O)c3c(C)[nH]c(C(=O)OC)c3C)C(=O)C(=O)N2CCN(C)C)cc1` (configuration not stated) [MLS000081294] showed an IC50 of over 95 µM. With `CCC1=C(OC(=O)N(CC)CC)N2C(=O)O/C(=N\CCOC)[C@]2(Cc2ccccc2)[C@H]2C1=CC[C@H]1C(=O)N(CC(=O)OC)C(=O)[C@H]12` [SMR000440375], the IC50 was over 95 µM. The compound `COC(=O)C1=C(C)N=C(C)C(C(=O)OC)C1C(=O)OC(C)C(=O)c1ccccc1` (configuration not stated) [2,6-dimethyl-1,4-dihydropyridine-3,4,5-tricarboxylic acid O3,O5-dimethyl ester O4-(1-oxo-1-phenylpropan-2-yl) ester] registered an IC50 of over 95 µM. As to `COc1ccc2c(c1)N(C)/C(=C1/S/C(=N\Cc3ccccc3)N(c3ccccc3)C1=O)S2` [(5Z)-5-(5-methoxy-3-methyl-1,3-benzothiazol-2-ylidene)-3-phenyl-2-(phenylmethyl)imino-1,3-thiazolidin-4-one], the IC50 is over 95 µM.
